{
  "source": "ChEMBL document CHEMBL5036347",
  "about": "“Design of the naphthyl-diarylpyrimidines as potent non-nucleoside reverse transcriptase inhibitors (NNRTIs) via structure-based extension into the entrance channel” (Eur J Med Chem, 2021)",
  "data": [
    {"system": "Human immunodeficiency virus 1", "assay": "Anti-HIV activity against HIV-1 IIIB infected in human MT4 cells assessed as reduction in virus-induced cytopathic effect incubated for 5 days by MTT assay", "type": "functional, organism-based", "conditions": "Human immunodeficiency virus 1, IIIB, MT4, 120 h", "units": {"EC50": "µM"}, "values": [
      {"compound": "COc1cc2cc(C#N)ccc2c(OC)c1Oc1cc(NCC2CCOCC2)nc(Nc2ccc(C#N)cc2)n1", "EC50": 0.022},
      {"compound": "CCCCCNc1cc(Oc2c(OC)cc3cc(C#N)ccc3c2OC)nc(Nc2ccc(C#N)cc2)n1", "EC50": 0.043}
    ]},
    {"system": "Human immunodeficiency virus 2", "assay": "Anti-HIV activity against HIV2 ROD infected in human MT4 cells assessed as reduction in virus-induced cytopathic effect incubated for 5 days by MTT assay", "type": "functional, organism-based", "conditions": "Human immunodeficiency virus 2, ROD, MT4, 120 h", "units": {"EC50": "µM"}, "values": [
      {"compound": "COc1cc2cc(C#N)ccc2c(OC)c1Oc1cc(NCC2CCOCC2)nc(Nc2ccc(C#N)cc2)n1", "EC50": "> 1000"},
      {"compound": "CCCCCNc1cc(Oc2c(OC)cc3cc(C#N)ccc3c2OC)nc(Nc2ccc(C#N)cc2)n1", "EC50": "> 1000"}
    ]},
    {"system": "not listed separately", "assay": "Cytotoxicity against human MT4 cells assessed as reduction in cell viability incubated for 5 days by MTT assay", "type": "cell-based", "conditions": "human, MT4 cells; time 5 day", "units": {"CC50 at 120 h": "µM"}, "values": [
      {"compound": "COc1cc2cc(C#N)ccc2c(OC)c1Oc1cc(NCC2CCOCC2)nc(Nc2ccc(C#N)cc2)n1", "CC50 at 120 h": "> 125"},
      {"compound": "CCCCCNc1cc(Oc2c(OC)cc3cc(C#N)ccc3c2OC)nc(Nc2ccc(C#N)cc2)n1", "CC50 at 120 h": "> 125"}
    ]},
    {"system": "Human immunodeficiency virus 1", "assay": "Antiviral activity against HIV1 harboring reverse transcriptase L100I mutant infected in human MT4 cells assessed as protection against virus-induced cytopathic effect incubated for 5 days by MTT assay", "type": "functional, organism-based", "conditions": "Human immunodeficiency virus 1, MT4, 120 h", "units": {"EC50": "µM"}, "values": [
      {"compound": "COc1cc2cc(C#N)ccc2c(OC)c1Oc1cc(NCC2CCOCC2)nc(Nc2ccc(C#N)cc2)n1", "EC50": 0.15},
      {"compound": "CCCCCNc1cc(Oc2c(OC)cc3cc(C#N)ccc3c2OC)nc(Nc2ccc(C#N)cc2)n1", "EC50": 1.43}
    ]},
    {"system": "Human immunodeficiency virus 1", "assay": "Antiviral activity against HIV1 harboring reverse transcriptase K103N mutant infected in human MT4 cells assessed as protection against virus-induced cytopathic effect incubated for 5 days by MTT assay", "type": "functional, organism-based", "conditions": "Human immunodeficiency virus 1, MT4, 120 h", "units": {"EC50": "µM"}, "values": [
      {"compound": "COc1cc2cc(C#N)ccc2c(OC)c1Oc1cc(NCC2CCOCC2)nc(Nc2ccc(C#N)cc2)n1", "EC50": 0.016},
      {"compound": "CCCCCNc1cc(Oc2c(OC)cc3cc(C#N)ccc3c2OC)nc(Nc2ccc(C#N)cc2)n1", "EC50": 0.041}
    ]},
    {"system": "Human immunodeficiency virus 1", "assay": "Antiviral activity against HIV1 harboring reverse transcriptase Y181C mutant infected in human MT4 cells assessed as protection against virus-induced cytopathic effect incubated for 5 days by MTT assay", "type": "functional, organism-based", "conditions": "Human immunodeficiency virus 1, MT4, 120 h", "units": {"EC50": "µM"}, "values": [
      {"compound": "COc1cc2cc(C#N)ccc2c(OC)c1Oc1cc(NCC2CCOCC2)nc(Nc2ccc(C#N)cc2)n1", "EC50": 0.053},
      {"compound": "CCCCCNc1cc(Oc2c(OC)cc3cc(C#N)ccc3c2OC)nc(Nc2ccc(C#N)cc2)n1", "EC50": 0.5}
    ]},
    {"system": "Human immunodeficiency virus 1", "assay": "Antiviral activity against HIV1 harboring reverse transcriptase Y188L mutant infected in human MT4 cells assessed as protection against virus-induced cytopathic effect incubated for 5 days by MTT assay", "type": "functional, organism-based", "conditions": "Human immunodeficiency virus 1, MT4, 120 h", "units": {"EC50": "µM"}, "values": [
      {"compound": "COc1cc2cc(C#N)ccc2c(OC)c1Oc1cc(NCC2CCOCC2)nc(Nc2ccc(C#N)cc2)n1", "EC50": 0.37},
      {"compound": "CCCCCNc1cc(Oc2c(OC)cc3cc(C#N)ccc3c2OC)nc(Nc2ccc(C#N)cc2)n1", "EC50": 50.7}
    ]},
    {"system": "Human immunodeficiency virus 1", "assay": "Antiviral activity against HIV1 harboring reverse transcriptase E138K mutant infected in human MT4 cells assessed as protection against virus-induced cytopathic effect incubated for 5 days by MTT assay", "type": "functional, organism-based", "conditions": "Human immunodeficiency virus 1, MT4, 120 h", "units": {"EC50": "µM"}, "values": [
      {"compound": "COc1cc2cc(C#N)ccc2c(OC)c1Oc1cc(NCC2CCOCC2)nc(Nc2ccc(C#N)cc2)n1", "EC50": 0.064},
      {"compound": "CCCCCNc1cc(Oc2c(OC)cc3cc(C#N)ccc3c2OC)nc(Nc2ccc(C#N)cc2)n1", "EC50": 0.096}
    ]},
    {"system": "Human immunodeficiency virus 1", "assay": "Antiviral activity against HIV1 harboring reverse transcriptase F227L/V106A mutant infected in human MT4 cells assessed as protection against virus-induced cytopathic effect incubated for 5 days by MTT assay", "type": "functional, organism-based", "conditions": "Human immunodeficiency virus 1, MT4, 120 h", "units": {"EC50": "µM"}, "values": [
      {"compound": "COc1cc2cc(C#N)ccc2c(OC)c1Oc1cc(NCC2CCOCC2)nc(Nc2ccc(C#N)cc2)n1", "EC50": 2.48},
      {"compound": "CCCCCNc1cc(Oc2c(OC)cc3cc(C#N)ccc3c2OC)nc(Nc2ccc(C#N)cc2)n1", "EC50": "> 1000"}
    ]},
    {"system": "not listed separately", "assay": "Resistance fold, ratio of EC50 for HIV1 harboring reverse transcriptase Y181C mutant […] to EC50 for wild type HIV1 […]", "type": "functional", "conditions": "not given", "values": [
      {"compound": "COc1cc2cc(C#N)ccc2c(OC)c1Oc1cc(NCC2CCOCC2)nc(Nc2ccc(C#N)cc2)n1", "Ratio EC50": 2},
      {"compound": "CCCCCNc1cc(Oc2c(OC)cc3cc(C#N)ccc3c2OC)nc(Nc2ccc(C#N)cc2)n1", "Ratio EC50": 12}
    ]},
    {"system": "not listed separately", "assay": "Resistance fold, ratio of EC50 for HIV1 harboring reverse transcriptase L100I mutant […] to EC50 for wild type HIV1 […]", "type": "functional", "conditions": "not given", "values": [
      {"compound": "CCCCCNc1cc(Oc2c(OC)cc3cc(C#N)ccc3c2OC)nc(Nc2ccc(C#N)cc2)n1", "Ratio EC50": 33}
    ]},
    {"system": "not listed separately", "assay": "Resistance fold, ratio of EC50 for HIV1 harboring reverse transcriptase K103N mutant […] to EC50 for wild type HIV1 […]", "type": "functional", "conditions": "not given", "values": [
      {"compound": "COc1cc2cc(C#N)ccc2c(OC)c1Oc1cc(NCC2CCOCC2)nc(Nc2ccc(C#N)cc2)n1", "Ratio EC50": 2},
      {"compound": "CCCCCNc1cc(Oc2c(OC)cc3cc(C#N)ccc3c2OC)nc(Nc2ccc(C#N)cc2)n1", "Ratio EC50": 1}
    ]},
    {"system": "Human immunodeficiency virus 1", "assay": "Antiviral activity against HIV1 harboring reverse transcriptase K103N/Y181C double mutant infected in human MT4 cells assessed as protection against virus-induced cytopathic effect incubated for 5 days by MTT assay", "type": "functional, organism-based", "conditions": "Human immunodeficiency virus 1, MT4, 120 h", "units": {"EC50": "µM"}, "values": [
      {"compound": "COc1cc2cc(C#N)ccc2c(OC)c1Oc1cc(NCC2CCOCC2)nc(Nc2ccc(C#N)cc2)n1", "EC50": 0.24},
      {"compound": "CCCCCNc1cc(Oc2c(OC)cc3cc(C#N)ccc3c2OC)nc(Nc2ccc(C#N)cc2)n1", "EC50": 6.37}
    ]},
    {"system": "not listed separately", "assay": "Selectivity index, ratio of CC50 for cytotoxicity against human MT4 cells to EC50 of Anti-HIV activity against HIV-1 IIIB infected in human MT4", "type": "toxicity, cell-based", "conditions": "read-out: Selectivity Index", "values": [
      {"compound": "COc1cc2cc(C#N)ccc2c(OC)c1Oc1cc(NCC2CCOCC2)nc(Nc2ccc(C#N)cc2)n1", "selectivity ratio": "> 10700"},
      {"compound": "CCCCCNc1cc(Oc2c(OC)cc3cc(C#N)ccc3c2OC)nc(Nc2ccc(C#N)cc2)n1", "selectivity ratio": "> 5670"}
    ]},
    {"system": "not listed separately", "assay": "Resistance fold, ratio of EC50 for HIV1 harboring reverse transcriptase Y188L mutant […] to EC50 for wild type HIV1 […]", "type": "functional", "conditions": "not given", "values": [
      {"compound": "COc1cc2cc(C#N)ccc2c(OC)c1Oc1cc(NCC2CCOCC2)nc(Nc2ccc(C#N)cc2)n1", "Ratio EC50": 17},
      {"compound": "CCCCCNc1cc(Oc2c(OC)cc3cc(C#N)ccc3c2OC)nc(Nc2ccc(C#N)cc2)n1", "Ratio EC50": 1171}
    ]},
    {"system": "not listed separately", "assay": "Resistance fold, ratio of EC50 for HIV1 harboring reverse transcriptase E138K mutant […] to EC50 for wild type HIV1 […]", "type": "functional", "conditions": "not given", "values": [
      {"compound": "COc1cc2cc(C#N)ccc2c(OC)c1Oc1cc(NCC2CCOCC2)nc(Nc2ccc(C#N)cc2)n1", "Ratio EC50": 4},
      {"compound": "CCCCCNc1cc(Oc2c(OC)cc3cc(C#N)ccc3c2OC)nc(Nc2ccc(C#N)cc2)n1", "Ratio EC50": 2}
    ]},
    {"system": "not listed separately", "assay": "Resistance fold, ratio of EC50 for HIV1 harboring reverse transcriptase F227L/V106A double mutant […] to EC50 for wild type HIV1 […]", "type": "functional", "conditions": "not given", "values": [
      {"compound": "COc1cc2cc(C#N)ccc2c(OC)c1Oc1cc(NCC2CCOCC2)nc(Nc2ccc(C#N)cc2)n1", "Ratio EC50": 113},
      {"compound": "CCCCCNc1cc(Oc2c(OC)cc3cc(C#N)ccc3c2OC)nc(Nc2ccc(C#N)cc2)n1", "Ratio EC50": ">23095"}
    ]},
    {"system": "not listed separately", "assay": "Resistance fold, ratio of EC50 for HIV1 harboring reverse transcriptase K103N/Y181C double mutant […] to EC50 for wild type HIV1 […]", "type": "functional", "conditions": "not given", "values": [
      {"compound": "COc1cc2cc(C#N)ccc2c(OC)c1Oc1cc(NCC2CCOCC2)nc(Nc2ccc(C#N)cc2)n1", "Ratio EC50": 11},
      {"compound": "CCCCCNc1cc(Oc2c(OC)cc3cc(C#N)ccc3c2OC)nc(Nc2ccc(C#N)cc2)n1", "Ratio EC50": 147}
    ]},
    {"molecular_target": "Human immunodeficiency virus type 1 reverse transcriptase (Human immunodeficiency virus 1, UniProt Q72547)", "assay": "Inhibition of wild type HIV1 reverse transcriptase using oligo(dT)16 as primer measured after 40 mins by picogreen-dye based spectrofluorimetric analysis", "conditions": "not given", "units": {"IC50": "µM"}, "values": [
      {"compound": "COc1cc2cc(C#N)ccc2c(OC)c1Oc1cc(NCC2CCOCC2)nc(Nc2ccc(C#N)cc2)n1", "IC50": 0.2},
      {"compound": "CCCCCNc1cc(Oc2c(OC)cc3cc(C#N)ccc3c2OC)nc(Nc2ccc(C#N)cc2)n1", "IC50": 0.02}
    ]}
  ]
}
